How the values were obtained:
Test in all cases: combination Emax (second highest fraction inhibited in the dose matrix, 72 h); higher = more inhibition; extreme values may be limits of the assay
[1] = test system: NCI-H2141 (Small Cell Lung Carcinoma)
Summary of the method: (§1)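 Bliss excess equals the observed combination effect minus the expected value EA + EB − EA·EB, where EA and EB are the effects of each agent alone. Combination Emax is the second-highest inhibition within the matrix. Inhibition was scaled from CellTiter-Glo 2.0 luminescence, with 0 set by vehicle wells and 1 by blank wells, after 72 hours of two-drug dosing of cells plated in 1536-well plates.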

GI-ME-N (Neuroblastoma) = test system: GI-ME-N (Neuroblastoma)
Summary of the method: as §1

[2] = test system: BICR22 (Oral Cavity Carcinoma)
Summary of the method: as §1

[3] = test system: TT2609-C02 (Thyroid Gland Carcinoma)
Summary of the method: as §1

[4] = test system: ONS-76 (Other Solid Carcinomas)
Summary of the method: as §1

[5] = test system: PANC-10-05 (Pancreatic Carcinoma)
Summary of the method: as §1

NY (Osteosarcoma) = test system: NY (Osteosarcoma)
Summary of the method: as §1

[6] = test system: NCI-H64 (Small Cell Lung Carcinoma)
Summary of the method: as §1

[7] = test system: OS-RC-2 (Kidney Carcinoma)
Summary of the method: as §1

8-MG-BA (Glioblastoma) = test system: 8-MG-BA (Glioblastoma)
Summary of the method: as §1

[8] = test system: SK-MES-1 (Squamous Cell Lung Carcinoma)
Summary of the method: as §1

[9] = test system: NCI-H1650 (Lung Adenocarcinoma)
Summary of the method: as §1

[10] = test system: SK-MG-1 (Low Grade Glioma)
Summary of the method: as §1

ARH-77 (Non-Cancerous) = test system: ARH-77 (Non-Cancerous)
Summary of the method: as §1

[11] = test system: JSC-1 (B-Cell Non-Hodgkin's Lymphoma)
Summary of the method: as §1

[12] = test system: ECC10 (Gastric Carcinoma)
Summary of the method: as §1

U-2-OS (Osteosarcoma) = test system: U-2-OS (Osteosarcoma)
Summary of the method: as §1

NCI-H2591 (Mesothelioma) = test system: NCI-H2591 (Mesothelioma)
Summary of the method: as §1

[13] = test system: NCI-H1666 (Lung Adenocarcinoma)
Summary of the method: as §1

[14] = test system: A549 (Lung Adenocarcinoma)
Summary of the method: as §1

| Compound | combination Emax [1] | combination Emax (GI-ME-N (Neuroblastoma)) | combination Emax [2] | combination Emax [3] | combination Emax [4] | combination Emax [5] | combination Emax (NY (Osteosarcoma)) | combination Emax [6] | combination Emax [7] | combination Emax (8-MG-BA (Glioblastoma)) | combination Emax [8] | combination Emax [9] | combination Emax [10] | combination Emax (ARH-77 (Non-Cancerous)) | combination Emax [11] | combination Emax [12] | combination Emax (U-2-OS (Osteosarcoma)) | combination Emax (NCI-H2591 (Mesothelioma)) | combination Emax [13] | combination Emax [14] |
| --- | --- | --- | --- | --- | --- | --- | --- | --- | --- | --- | --- | --- | --- | --- | --- | --- | --- | --- | --- | --- |
| CC1(C)CCC(CN2CCN(c3ccc(C(=O)NS(=O)(=O)c4ccc(NCC5CCOCC5)c([N+](=O)[O-])c4)c(Oc4cnc5[nH]ccc5c4)c3)CC2)=C(c2ccc(Cl)cc2)C1 [Venetoclax] + COc1cc(Nc2ncc3c(n2)-c2ccc(Cl)cc2C(c2c(F)cccc2OC)=NC3)ccc1C(=O)O [Alisertib] (first compound max 1 µM, 7x7, partner max 10 µM) | 0.518 | 0.327 | 0.501 | 0.426 | 0.553 | 0.302 | 0.654 | 0.692 | 0.319 | 0.447 | 0.4 | 0.493 | 0.365 | 0.932 | 0.377 | 0.963 | 0.4 | 0.298 | 0.501 | 0.721 |
| CN(C)CCCOc1ccc(-c2ccc3ncc4c(c3c2)n(C2CCOCC2)c(=O)n4C)cn1 [AZD0156] + C[C@@H]1COCCN1C2=NC(=NC(=C2)C3(CC3)[S@](=N)(=O)C)C4=C5C=CNC5=NC=C4 [AZD6738] (first compound max 1 µM, 7x7, partner max 10 µM) | 0.462 | 0.697 | 0.724 | 0.144 | 0.942 | 0.41 | 0.555 | 0.732 | 0.425 | 0.834 | 0.73 | 0.376 | 0.565 | 0.975 | 0.916 | 0.332 | 0.856 | 0.293 | 0.331 | 0.789 |
| CN(CCO)CC[C@H](CSc1ccccc1)Nc1ccc(S(=O)(=O)NC(=O)c2ccc(N3CCC([C@@H](O)c4ccccc4-c4ccc(Cl)cc4)CC3)cc2)cc1S(=O)(=O)C(F)(F)F [AZD4320] + CCN(CCO)CCCOc1ccc2c(Nc3cc(CC(=O)Nc4cccc(F)c4)[nH]n3)ncnc2c1 [AZD2811] (first compound max 1 µM, 7x7, partner max 1 µM) | 0.896 | 0.19 | 0.828 | 0.505 | 0.589 | 0.18 | 0.121 | 1 | 0.159 | 0.21 | 0.342 | 0.254 | 0.731 | 0.95 | 0.341 | 1 | 0.389 | 0.561 | 0.154 | 0.446 |
| CC1(C)CCC(CN2CCN(c3ccc(C(=O)NS(=O)(=O)c4ccc(NCC5CCOCC5)c([N+](=O)[O-])c4)c(Oc4cnc5[nH]ccc5c4)c3)CC2)=C(c2ccc(Cl)cc2)C1 [Venetoclax] + Cn1cnc2c(F)c(Nc3ccc(Br)cc3Cl)c(C(=O)NOCCO)cc21 [Selumetinib] (first compound max 1 µM, 7x7, partner max 3 µM) | 0.159 | 0.24 | 0.141 | 0.55 | 0.536 | 0.398 | 0.485 | 0.239 | 0.169 | 0.124 | 0.345 | 0.0531 | 0.185 | 0.369 | 0.271 | 0.937 | 0.169 | 0.171 | 0.575 | 0.611 |
| CC1(C)CCC(CN2CCN(c3ccc(C(=O)NS(=O)(=O)c4ccc(NCC5CCOCC5)c([N+](=O)[O-])c4)c(Oc4cnc5[nH]ccc5c4)c3)CC2)=C(c2ccc(Cl)cc2)C1 [Venetoclax] + C1CN(CCC1(C(=O)N[C@@H](CCO)C2=CC=C(C=C2)Cl)N)C3=NC=NC4=C3C=CN4 [Capivasertib] (first compound max 1 µM, 7x7, partner max 3 µM) | 0.249 | 0.24 | 0.272 | 0.139 | 0.761 | 0.273 | 0.583 | 0.361 | 0.354 | 0.26 | 0.202 | 0.164 | 0.437 | 0.7 | 0.161 | 0.959 | 0.263 | 0.174 | 0.287 | 0.36 |
| CC1(C)CCC(CN2CCN(c3ccc(C(=O)NS(=O)(=O)c4ccc(NCC5CCOCC5)c([N+](=O)[O-])c4)c(Oc4cnc5[nH]ccc5c4)c3)CC2)=C(c2ccc(Cl)cc2)C1 [Venetoclax] + Cc1cc2ncnn2cc1Nc1ncc2c(n1)n(C1CCOCC1)c(=O)n2C [AZD7648] (first compound max 1 µM, 7x7, partner max 10 µM) | 0.178 | 0.186 | 0.291 | 0.341 | 0.764 | 0.332 | 0.578 | 0.255 | 0.274 | 0.133 | 0.155 | 0.108 | 0.28 | 0.559 | 0.205 | 0.955 | 0.206 | 0.315 | 0.232 | 0.436 |

Reference: the supplement of paper PMC11061612
